US9765075B2, “Substituted bridged urea analogs as sirtuin modulators” (GLAXOSMITHKLINE LLC, priority 2013, dated 2017)
Read-outs that look alike come from different tables or passages of the source.

Target: T1, SIRT1 (Homo sapiens, UniProt Q96EB6)
T1 sequence (Q96EB6 1-747): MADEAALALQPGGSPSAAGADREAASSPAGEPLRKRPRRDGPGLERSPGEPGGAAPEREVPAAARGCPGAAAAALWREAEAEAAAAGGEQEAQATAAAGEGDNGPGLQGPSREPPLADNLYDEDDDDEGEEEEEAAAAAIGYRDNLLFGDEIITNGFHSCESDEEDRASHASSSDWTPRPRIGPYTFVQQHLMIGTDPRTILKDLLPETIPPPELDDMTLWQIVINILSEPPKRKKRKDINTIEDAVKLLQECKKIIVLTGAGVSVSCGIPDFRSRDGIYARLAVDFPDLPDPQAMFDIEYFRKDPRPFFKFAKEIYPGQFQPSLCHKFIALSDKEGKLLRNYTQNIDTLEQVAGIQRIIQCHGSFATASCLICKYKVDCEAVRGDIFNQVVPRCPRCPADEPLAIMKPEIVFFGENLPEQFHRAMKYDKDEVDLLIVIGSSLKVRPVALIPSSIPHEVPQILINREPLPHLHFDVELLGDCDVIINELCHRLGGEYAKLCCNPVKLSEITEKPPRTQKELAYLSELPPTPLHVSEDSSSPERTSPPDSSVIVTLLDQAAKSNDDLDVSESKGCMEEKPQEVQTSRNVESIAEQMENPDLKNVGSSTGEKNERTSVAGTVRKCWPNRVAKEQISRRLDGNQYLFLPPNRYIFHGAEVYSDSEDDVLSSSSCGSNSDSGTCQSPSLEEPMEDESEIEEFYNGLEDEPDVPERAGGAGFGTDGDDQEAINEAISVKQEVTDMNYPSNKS
Test: Trp mass spectrometry assay (SIRT1 activation)
Format: biochemical
Details: for Emax: percent maximum fold activation of SIRT1, read-out: Tryp % Fold Act
How it was run: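 Activation is expressed as EC1.5, the concentration raising activity 50% above DMSO control, and as maximum percent of control. Mass-spec readout was OAADPR or deacetylated Trp peptide after a formic-acid-quenched 25-min, 25 °C reaction: 10 nM bacterially expressed His-SIRT1, 0.5 μM acetyl-p53-derived peptide, 120 μM NAD+, pH 7.5 HEPES with […].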

[1] = concentration of test compound that results in 150% activation of SIRT1, Trp peptide substrate
[2] = Trp mass spectrometry assay, EC1.5 = concentration giving 150% activation of SIRT1
[3] = Trp mass spectrometry assay, EC1.5 = concentration of test compound that results in 150% activation of SIRT1

Compound	Tryp AVG EC1.5 (μM) [1]	Emax (Trp peptide substrate) [%]	Tryp AVG EC1.5 (μM) [2]	Emax (Trp mass spectrometry assay) [%]	Tryp AVG EC1.5 (μM) [3]
CS(=O)(=O)c1cccc(-c2ccc3c(n2)N(C(=O)Nc2cccc(-c4cnco4)n2)[C@H]2CCN3C2)c1 [Example 715]	–	–	B (EC1.5 1-25 μM)	≥ 150	–
CC(=O)c1cccc(NC(=O)N2c3nc(-c4cccc(C(F)(F)F)c4)ccc3N3CC[C@H]2C3)c1 [Example 671]	–	–	A (EC1.5<1 μM)	≥ 150	–
O=C(Nc1ccccn1)N1c2nc(-c3cccc(N4CCCC4)c3)ccc2N2CC[C@H]1C2 [Example 136]	–	–	–	≥ 150	A (EC1.5<1 μM)
Cc1cncc(NC(=O)N2c3nc(N4CC[C@H](N(C)C)C4)ccc3N3CC[C@H]2C3)c1 [Example 243]	C (EC1.5>25 μM)	≥ 150	–	–	–
COc1cc(NC(=O)N2c3nc(-c4cccc(Cl)c4)ccc3N3CCC2CC3)ncn1 [Example 522]	B (EC1.5 1-25 μM)	≥ 150	–	–	–
O=C(Nc1ccccn1)N1c2nc(-c3cncc(C(F)(F)F)c3)ccc2N2C[C@@H](O)[C@H]1C2 [Example 694]	–	–	A (EC1.5<1 μM)	≥ 150	–
Cn1cc(NC(=O)N2c3nc(-c4cccc(Cl)c4)ccc3N3CC[C@H]2C3)cn1 [Example 108]	–	–	–	≥ 150	B (EC1.5 1-25 μM)
O=C(Nc1nnc(-c2cccnc2)o1)N1c2nc(-c3cccc(C(F)(F)F)c3)ccc2N2CC[C@H]1C2 [Example 721]	–	–	A (EC1.5<1 μM)	≥ 150	–
O=C(Nc1cncc(F)c1)N1c2nc(-c3ccnc(N4CCC(C(F)(F)F)C4)c3)ccc2N2CC[C@H]1C2 (some centres unmarked) [Example 410]	A (EC1.5<1 μM)	≥ 150	–	–	–
O=C(Nc1ccccn1)N1c2nc(-c3cccc(N4CCC(F)(F)C4)c3)ccc2N2CC[C@H]1C2 [Example 254]	A (EC1.5<1 μM)	≥ 150	–	–	–
Cc1cc(C(F)(F)F)nc(NC(=O)N2c3nc(-c4cccc(C(F)(F)F)c4)ccc3N3CC[C@H]2C3)n1 [Example 94]	–	–	–	≥ 150	B (EC1.5 1-25 μM)
O=C(Nc1ccncn1)N1c2nc(-c3cccc(N4CCOCC4)c3)ccc2N2CCC[C@H]1C2 [Example 529]	B (EC1.5 1-25 μM)	≥ 150	–	–	–
NCCCc1ccc(NC(=O)N2c3nc(-c4cccc(C(F)(F)F)c4)ccc3N3CCC[C@H]2C3)cc1-c1cnco1 [Example 767]	–	–	A (EC1.5<1 μM)	≥ 150	–
Cc1cc(-c2ccc3c(n2)N(C(=O)Nc2cc(-c4cnco4)ccn2)[C@H]2CCN3C2)ccn1 [Example 746]	–	–	A (EC1.5<1 μM)	≥ 150	–
O=C(Nc1cccc(-c2cnco2)c1)N1c2nc(-c3cccc(OC(F)(F)F)c3)ccc2N2CC[C@H]1C2 [Example 162]	–	–	–	≥ 150	A (EC1.5<1 μM)
COc1nccc(NC(=O)N2c3nc(-c4cccc(Cl)c4)ccc3N3CC[C@H]2C3)n1 [Example 50]	–	–	–	≥ 150	–
O=C(Nc1cccnc1)N1c2nc(-c3cncc(C(F)(F)F)c3)ccc2N2C[C@@H](O)[C@H]1C2 [Example 705]	–	–	B (EC1.5 1-25 μM)	≥ 150	–
O=C(Nc1cncc(F)c1)N1c2nc(-c3cccc(N4CC[C@H](F)C4)c3)ccc2N2CC[C@H]1C2 [Example 283]	A (EC1.5<1 μM)	≥ 150	–	–	–
COc1cc(-c2cccc(C(F)(F)F)c2)nc2c1N1CC[C@@H](C1)N2C(=O)Nc1nc(C)c(C)s1 [Example 161]	–	–	–	≥ 150	A (EC1.5<1 μM)
O=C(Nc1ccccn1)N1c2nc(-c3cccc(C(F)(F)F)n3)ccc2N2CC[C@H]1C2 [Example 336]	B (EC1.5 1-25 μM)	≥ 150	–	–	–
O=C(Nc1cccc(-n2cncn2)c1)N1c2nc(-c3cccc(C(F)(F)F)c3)ccc2N2CC[C@H]1C2 [Example 581]	A (EC1.5<1 μM)	≥ 150	–	–	–
Cn1ccc(NC(=O)N2c3nc(-c4cccc(OC(F)(F)F)c4)ccc3N3CC[C@H]2C3)n1 [Example 177]	–	–	–	≥ 150	A (EC1.5<1 μM)
O=C(Nc1cccnc1)N1c2nc(-c3cccc(OC(F)(F)F)c3)ccc2N2CC[C@H]1C2 [Example 163]	–	–	–	≥ 150	A (EC1.5<1 μM)
N=C(N)NCc1ncc(-c2cccc(NC(=O)N3c4nc(-c5cccc(C(F)(F)F)c5)ccc4N4CC[C@H]3C4)c2)o1 [Example 776]	–	–	A (EC1.5<1 μM)	≥ 150	–
Cc1nc(NC(=O)N2c3nc(-c4cccc(C(F)(F)F)c4)ccc3N3CC[C@H]2C3)sc1C [Example 48]	–	–	–	≥ 150	–
NCc1cn(-c2cccc(NC(=O)N3c4nc(-c5cccc(C(F)(F)F)c5)ccc4N4CC[C@H]3C4)c2)nn1 [Example 606]	A (EC1.5<1 μM)	≥ 150	–	–	–
O=C(Nc1ccc2c(c1)CCC2)N1c2nc(-c3cccc(C(F)(F)F)c3)ccc2N2CC[C@H]1C2 [Example 624]	B (EC1.5 1-25 μM)	≥ 150	–	–	–
O=C(Nc1ccnnc1)N1c2nc(-c3cccc(Cl)c3)ccc2N2CC[C@H]1C2 [Example 120]	–	–	–	≥ 150	A (EC1.5<1 μM)
O=C(Nc1cc[nH]c(=O)n1)N1c2nc(-c3cccc(C(F)(F)F)c3)ccc2N2CC[C@H]1C2 [Example 82]	–	–	–	≥ 150	–

More lines, now with the values ahead:

Tryp AVG EC1.5 (μM) [1]	Emax (Trp peptide substrate) [%]	Tryp AVG EC1.5 (μM) [2]	Emax (Trp mass spectrometry assay) [%]	Tryp AVG EC1.5 (μM) [3]	Compound
A (EC1.5<1 μM)	≥ 150	–	–	–	Cc1cncc(-c2ccc3c(n2)N(C(=O)Nc2cccnn2)[C@H]2CCCN3C2)c1 [Example 519]
A (EC1.5<1 μM)	≥ 150	–	–	–	O=C(Nc1cnccn1)N1c2nc(-c3ccnc(N4CC[C@H](F)C4)c3)ccc2N2CC[C@H]1C2 [Example 436]
–	–	–	≥ 150	–	O=C(Nc1cccnn1)N1c2nc(-c3cccc(C(F)(F)F)c3)ccc2N2CCC[C@H]1C2 [Example 28]
B (EC1.5 1-25 μM)	≥ 150	–	–	–	O=C(Nc1cnccn1)N1c2nc(-c3cncc(Cl)c3)ccc2N2CCC1CC2 [Example 550]
B (EC1.5 1-25 μM)	≥ 150	–	–	–	O=C(Nc1cnccn1)N1c2nc(-c3cncc(F)c3)ccc2N2CCC[C@H]1C2 [Example 432]
B (EC1.5 1-25 μM)	≥ 150	–	–	–	O=C(Nc1cncc(F)c1)N1c2nc(Cl)ccc2N2CC[C@H]1C2 [Example 259]
B (EC1.5 1-25 μM)	≥ 150	–	–	–	N#Cc1cccc(-c2ccc3c(n2)N(C(=O)Nc2cccnn2)[C@H]2CCCN3C2)c1 [Example 381]
A (EC1.5<1 μM)	≥ 150	–	–	–	COc1cncc(NC(=O)N2c3nc(-c4ccnc(C)c4)ccc3N3CC[C@H]2C3)n1 [Example 499]
–	–	B (EC1.5 1-25 μM)	≥ 150	–	O=C(Nc1cnccn1)N1c2nc(-c3cncc(C(F)(F)F)c3)ccc2N2C[C@@H](O)[C@H]1C2 [Example 695]
A (EC1.5<1 μM)	≥ 150	–	–	–	N#Cc1cncc(-c2ccc3c(n2)N(C(=O)Nc2ccccn2)[C@H]2CCN3C2)c1 [Example 373]
–	–	–	≥ 150	A (EC1.5<1 μM)	O=C(Nc1cnccn1)N1c2nc(-c3cccc(Cl)c3)ccc2N2CC[C@H]1C2 [Example 101]
A (EC1.5<1 μM)	≥ 150	–	–	–	CN(C)c1cccc(-c2ccc3c(n2)N(C(=O)Nc2cnccn2)[C@H]2CCCN3C2)c1 [Example 403]
A (EC1.5<1 μM)	≥ 150	–	–	–	O=C(Nc1cnccn1)N1c2nc(-c3ccnc(N4CCC(F)(F)C4)c3)ccc2N2CC[C@H]1C2 [Example 423]
